In US9517278B2, “Compound and photoacoustic imaging contrast medium containing the compound” (CANON KABUSHIKI KAISHA, priority 2012, dated 2016):

Legend:
[1] = Evaluation of retentivity of compound in blood (fluorescent intensity of blood); assay type: in vivo, nude mouse
Description: In order to examine the retentivity of the compound in blood, various compounds were administered to veins of nude mouse tails and the amounts of compounds remaining in blood were evaluated. […] The method for producing the compound was as described in Example 1. In Table 4, k represents 1,000. For example, 5 k represents 5,000.
The retentivity of the compound in blood was evaluated as described below. Blood samples were taken from a mouse 1 hour, 3 hours, 1 day, 2 days, and 1 week after administration, and the fluorescent intensity of the blood was measured using IVIS (registered trademark) Imaging System 200 Series (produced by Caliper Life Science Inc.). The amount of administration to the mouse was 0.5 mg/kg in terms of the amount of dye. […] It is considered that access of serum protein to the near-infrared organic dye was limited by bonding the branched chain PEG to the near-infrared organic dye, accumulation into a liver was reduced and, as a result, the retentivity in blood was acquired.

[2] = system: colon 26 cell line; assay: Tumor accumulation evaluated by photoacoustic imaging; assay type: in vivo; conditions: colon 26 tumor-bearing mouse, tail vein, 32 nmol as dye, 797 nm
Description: Photoacoustic signals were measured before a prepared compound was administered and at any given timing after administration by using the commercially available photoacoustic imaging apparatus (Nexus128, produced by Endra Inc.), so that three-dimensional reconfiguration data were obtained respectively. The photoacoustic intensity in a region of interest (ROI) was measured on the basis of the resulting three-dimensional reconfiguration data.
In the example according to the present invention, the amount of migration of the compound to a tumor mass was evaluated using a tumor-bearing model mouse. […] The fluorescent imaging was performed using IVIS (registered trademark) Imaging System and fluorescent intensity of a region of interest (ROI) of the tumor portion was measured.
In order to evaluate the tumor accumulation of the compound, a contrast medium was administered to a tail vein of a tumor-bearing mouse which had been transplanted a colon 26 cell line. […] Then, tumor accumulation 1 day after administration of the contrast medium into the tumor-bearing mouse was evaluated by photoacoustic imaging and fluorescence. […] Subsequently, the relative photoacoustic signal intensity 1 day after administration relative to before administration was calculated. The amount of accumulation into a tumor of the mouse was evaluated using fluorescence, as described below. […]

[3] = Tumor accumulation evaluated by fluorescence of tumor homogenate; assay type: in vivo; conditions: intravenous, 32 nmol in terms of the amount of dye, colon 26 tumor-bearing mouse, tail vein, 32 nmol as dye, 24 hours after administration
Description: The tumor accumulation was evaluated by an intraveneous injection of 100 microliters (13 nmol in terms of ICG) of various ICG-PEG aqueous solution into tumor-bearing mouse models, in which various cells were subcutaneously transplanted into BALB/c Slc-nu/nu mice. The mice were euthanized with a carbon dioxide gas 24 hours after the administration. Subsequently, each cancer tissue was enucleated. The cancer tissue was transferred to a plastic tube, 1% Triton-X100 aqueous solution 1.25 times the cancer tissue in weight was added, and a homogenate was produced using a plastic pestle. […] The amount of dye in the cancer tissue (% ID/g) was quantified by using IVIS (registered trademark) Imaging System 200 Series (produced by Caliper Life Science Inc.) and measuring the fluorescent intensity of the solution of the dye extracted from the tumor tissue and the standard solution for calibration in the state of the plastic tube.
In order to evaluate the tumor accumulation of the compound, a contrast medium was administered to a tail vein of a tumor-bearing mouse which had been transplanted a colon 26 cell line. […] Then, tumor accumulation 1 day after administration of the contrast medium into the tumor-bearing mouse was evaluated by photoacoustic imaging and fluorescence. […] The amount of accumulation into a tumor of the mouse was evaluated using fluorescence, as described below. […]

[4] = rat, ICG administered to the blood alone; cited from earlier work
[5] = in vivo; cited from earlier work
[6] = nude mouse, tail vein, 0.5 mg/kg as dye, ICG 1 day after administration = 1

With `CC1(C)C(/C=C/C=C/C=C/C=C2/N(CCCCS(=O)(=O)[O-])c3ccc4ccccc4c3C2(C)C)=[N+](CCCCS(=O)(=O)[O-])c2ccc3ccccc3c21.[Na+]` [ICG, Indocyanine Green] the Retentivity in blood ([1]; in words) was “disappeared from the blood promptly”, the “Relative concentration in blood, 1 week after” value [1, 6] was 0.72 and the “Relative concentration in blood, 1 hour after” value [1, 6] was 36.7. For the same compound, the “Relative concentration in blood, 3 hours after” value [1, 6] was 19, the “Relative concentration in blood, 2 days after” value [1, 6] was 0.89 and the “Relative concentration in blood, 1 day after” value ([1]; nude mouse, tail vein, 0.5 mg/kg as dye, ICG 1 day after administration = 1 (Table 6)) was 1. The “Relative concentration in blood (1 day after administration)” value ([1]; nude mouse, tail vein, 0.5 mg/kg as dye, concentration of ICG in blood 1 day after administration = 1 (Table 5)) was 1, the “Relative photoacoustic intensity (1 day after administration)” value [2] was 1 and the tissue uptake at 24 h [3] was 0.1 %ID/g. The “Time after administration until photoacoustic signal intensity is reduced to the level of the blood” value [4] was “several tens of minutes” and the Half-life in blood [5] was “about several minutes”.
